Row | melting point [°C] | SMILES
1 | 128 to 130 | N#Cc1oc(-c2ccc(Cl)cc2)c2ccccc12
2 | 143 to 147 | O=C(O)C(CC1CCCC1)c1ccc(C#Cc2ccccn2)cc1 (centres undefined)
3 | 212 to 214 | O=C(CN1C(=O)C(Cl)=C(Cl)C1=O)Nc1ccc(Cl)cc1
4 | 117 to 118 | CCOC(=O)c1nnc(-c2ccc(Cl)cc2)o1
5 | 99 to 101 | COC(=O)c1ccc(Cl)cc1NC(=O)CSc1ccccc1Cl
6 | 178 | Cc1c(C(=O)N[C@H](C(=O)O)c2ccc(OCc3ccccc3)cc2)oc2cc(-c3ccc(Cl)cc3)ccc12
7 | 129 to 130 | Cc1cc(C)n2ncc(F)c2n1
8 | 169 to 170 | O=C1C(NCCN2CCCC2)=CC(=O)c2oc(-c3cccc(Br)c3)nc21
9 | 107 to 109 | COC(=O)COc1cccc(-c2nc(COc3ccc(COc4nn(-c5ccccc5)cc4C=O)cc3OC)c(C)o2)c1
10 | 310 | CCn1ncc2c(NCC34CC5CC(CC(C5)C3)C4)c3ccccc3nc21
11 | 120 to 121 | O=C(NCc1ccccc1Cl)c1ccc2cnccc2n1
12 | 116 to 117 | COCc1nc(-c2cc(C(C)(C)C)c(O)c(C(C)(C)C)c2)cs1
13 | 175 to 177 | Cc1c(C)c(N2CCN(c3ccc(F)cc3)CC2)c(C)c2c1OC(C)(C)C2
14 | 156 to 158 | C=CC/C=C(\C(=O)O)c1cc(OC)c(O)c2c(Cc3ccccc3)cccc12
15 | 239 to 241 | COc1cc(S(C)=O)ccc1-c1ccc(C#N)c(=O)[nH]1 (centres undefined)
16 | 157 to 158 | Clc1ncccc1-c1ncoc1-c1cccnc1Cl
17 | 89 to 90 | O=C(C=Cc1ccncc1)c1cccc(C(F)(F)F)c1
18 | 170 | CNS(=O)(=O)Cc1ccc(NC(=O)C(F)(F)F)c(Br)c1
19 | 256 | O=C(O)c1c2n(c3cc(N4CCN(CCO)CC4)c(F)cc3c1=O)CCS2
20 | 83 | CN1CCC(c2c[nH]c3ccc(Sc4ccccn4)cc23)CC1
21 | 57 to 59 | COC(=O)C(=O)c1ccc(OCC#Cc2ccccc2)cc1
22 | 113 to 116 | Nc1nc(=O)n(C(=S)Oc2ccccc2)cc1F
23 | 52 to 54 | CCOC(=O)N1CCCSC1=C(C(C)=O)[N+](=O)[O-]
24 | 214 to 217 | COc1ccc(-c2cccc(C3SC(N4CCOCC4)=NC3=O)n2)cc1-c1ccccc1 (centres undefined)

Row | melting point [°C] | SMILES
25 | 160 to 163 | OCCn1cc(-c2ccc3ncn(Cc4ccc5ncccc5c4)c3n2)cn1
26 | 96.5 to 97.5 | CON=C(c1ccccc1COc1cccc(Cl)c1)n1ccnc1
27 | 117 to 121 | COC(=O)CCCc1cc2cc(C(F)(F)F)ccc2n1S(=O)(=O)c1ccc2ncsc2c1
28 | 188 | Cc1nn(CCc2ccccc2)cc1C(=O)Nc1ccc(N2CCC(N3CCOCC3)CC2)c(C#N)c1
29 | 160 to 161 | COCc1cnc2c(NC(=O)c3c(Cl)cccc3Cl)cccc2c1COC
30 | 98 to 99 | O=C1NC(=O)C(Cc2ccc(OCCc3nc(-c4ccccc4)oc3CO)cc2)S1 (centres undefined)
31 | 142 to 143 | CCOC(=O)c1c(CC)nn2c(-c3cccc(C(F)(F)F)c3)ccnc12
32 | 195 to 198 | CC(c1cc(Cl)ccc1N1CCCCC1C)C(C(N)=O)c1ccc(C(=O)O)cc1 (centres undefined)
33 | 227 to 228 | Cc1nc2c(N)nc3cc(OCCNC(=O)OC(C)(C)C)ccc3c2n1CC(C)C
34 | 126 to 130 | O=C(O)CCc1cc(OCc2cc(COc3ccc(Cl)cc3Cl)cc(OCc3ccccc3)c2)nn1-c1ccccc1
35 | 70 to 71 | c1cnc2c(c1)NCCCC2
36 | 144 to 145 | CC(=O)ON=Cc1cccc2c1C=Cc1ccccc1S2
37 | 196 to 198 | N#Cc1cn(-c2ccc(F)cc2F)c(=O)n(SC(Cl)(Cl)Cl)c1=O
38 | 229 to 230 | Cc1c(C)c2c(c(C)c1NC(=O)CC(C)(C)C)C(N1CCCCC1)C(C)(C)O2 (centres undefined)
39 | > 200 | CCOC(=O)Cn1c2c([nH]c(=O)c1=O)CCC1=C2C=C(n2ccc(CN3CCN(C(c4ccccc4)c4ccccc4)CC3)c2)CC1
40 | 135 to 136 | CCCCC(C=O)(CC)CS(=O)(=O)c1ccccc1C(=O)c1ccccc1 (centres undefined)
41 | 222 to 224 | CCOC(=O)c1ncc2[nH]c3cccc(Oc4ccc(N)cc4)c3c2c1COC
42 | 149 to 151 | CCCCc1nc2c(C)cnc(C(=O)OC)c2n1Cc1ccc(-c2ccccc2-c2nnn[nH]2)cc1
43 | 195 to 197 | Cc1ccccc1-c1cc2cnc(N)nc2nc1NC(=O)NC(C)(C)C
44 | 152 to 155 | Nc1nc(N)c2ncn(C(O)C3C=CCC3)c2n1 (centres undefined)
45 | 150 to 151 | Ic1ccc(CCc2ccc(I)cc2)cc1
46 | 124 to 125 | Cc1cccc(Oc2ccc(Cl)cc2C(=O)O)c1
47 | 98.5 to 100 | COC[C@H](C1CC1)n1cc(Br)nc(Br)c1=O
48 | 195 to 202 | CCCn1c(=O)c2[nH]c(/C=C/c3ccc(Cl)c(Cl)c3)nc2n(CCC)c1=O

Row | melting point [°C] | SMILES
49 | 147 to 148 | NNCCCS(=O)(=O)O
50 | 123 to 124 | CC(C)OC(=O)C(C(=O)O)=C1SCS1
51 | 204 to 205 | CCCCc1nc2c(N)nc3ccccc3c2n1CCCNC(=O)c1cc2ccccc2cn1
52 | 114 | CC(C)C(=O)Nc1ccccc1C(F)(F)F
53 | 190 to 195 | Cc1n[nH]cc1-c1cccc2c1nnn2-c1ccnc(NC2CCC(C(=O)N3CCC(O)CC3)CC2)n1 (centres undefined)
54 | 200 to 203 | COc1ccc(C)cc1NC(=O)Nc1ccc(N2CCC(C(=O)Nc3ncccc3C)CC2)cc1
55 | 48 to 51 | O=CCCOc1ccc(CC2SC(=O)NC2=O)cc1 (centres undefined)
56 | 143 to 144 | Cc1oc(-c2ccccc2)nc1CCOc1ccc(CCc2nnn[nH]2)cc1
57 | 144 to 147 | COc1ccccc1Oc1c(NS(=O)(=O)c2c(C)noc2C)nc(N2CCOCC2)nc1OCCO
58 | 62 to 63 | CCCCOc1ccc(Oc2cc(=O)c3c(OCCCC)c(OC)c(OCCCC)cc3o2)cc1
59 | 144 to 145 | CCCCC(=O)c1c(-c2ccc3cc(OC(Cc4ccccc4)C(=O)O)ccc3c2)oc2ccccc12 (centres undefined)
60 | 237 to 239 | Cc1c(NC(=O)CC(C)(C)C)c(C)c2c(c1-c1cccc(N)n1)OCC2c1ccc(C(C)C)cc1 (centres undefined)
61 | 133 | Clc1nc(-c2ccc(Br)cc2)nc(Cl)c1-c1ccccc1
62 | 249 to 250 | CS(=O)(=O)N1CCC(Nc2ncc(C(=O)c3ccccc3)c(N)n2)CC1
63 | 152 to 154 | CC(=O)Nc1ccccc1Oc1ccc(C#N)c(C#N)c1
64 | 173 | CCOC(=O)c1ccc(COCc2csc3nc(C(=O)NCc4cccc(OC)c4)[nH]c(=O)c23)cc1
65 | 129 to 132 | O=C1N(c2ccccc2Br)Cc2cnc(Nc3ccccc3)nc2N1c1ccc(CO)cc1
66 | 305 to 306 | O=[N+]([O-])c1cc(-c2nnc(Nc3ccc(Cl)c(Cl)c3)s2)cc([N+](=O)[O-])c1
67 | 122 to 127 | CCCCCCCCCCCC(=O)c1ccc(/C=C/C(=O)O)o1
68 | 264 to 266 | Cn1nnc(-c2ccc(C=Cc3ccc(-c4nc5ccccc5o4)cc3)cc2)c1C#N
69 | 73 to 75 | N#Cc1cc(N)ccc1Sc1ccccc1
70 | 127 to 129 | COc1cc(C(=O)C=Cc2ccncc2)cc(OC)c1OC
71 | 100 to 102 | Cc1ccc(Cl)cc1NC(=O)OC(C)(C)C
72 | 137 to 138 | COc1ccc(/C=C/CO)cc1OCc1nc(-c2ccccc2)oc1C

Row | melting point [°C] | SMILES
73 | 220 | CC(=S)Nc1ccc(C(=O)O)cc1
74 | 80 to 84 | CC(C)(N)CNC(=O)CNC(=O)c1ccccc1
75 | 165 | O=C1NC(=O)C(Cc2ccc(OCCn3ncc4ccccc4c3=O)cc2)S1 (centres undefined)
76 | 164 to 165 | COCNC(=O)NC(=O)C(C#N)=NOC
77 | 254 to 256 | CCn1c(=O)c(-c2ccc3ccccc3c2)cc2cnc(Nc3ccccc3)nc21
78 | 235 to 237 | O=C(Nc1ccc(-n2nc(C(F)(F)F)cc2C(F)(F)F)cc1)c1c(F)c(F)cc(F)c1F
79 | 101 to 102 | O=C(NCCCS(=O)c1ccncc1)c1cccs1 (centres undefined)
80 | 162 | CS(=O)(=O)N1CCN([C@](O)(CNC(=O)c2ccc(OCC#CCO)cc2)C(N)=O)CC1
81 | 105 to 135 | Nc1ccccc1NC(=O)c1cc2cccc(OCc3ccccn3)c2o1
82 | 105 | O=C(OCCS(=O)(=O)Cc1ccccc1)c1cc(Oc2ccc(C(F)(F)F)cc2Cl)ccc1[N+](=O)[O-]
83 | 122 to 123 | CNC(=NCCSCc1ncccc1OC)NC#N
84 | 142 to 143 | Cc1noc2cc3c(cc12)C1(CO3)C(=O)N(Cc2ccccn2)c2ccccc21 (centres undefined)
85 | 109 to 111 | COc1cccc(N2CCN(C(=O)Oc3ccc(Oc4ccc(C(F)(F)F)cn4)cc3)CC2)c1
86 | 231 | CCNC(=O)Nc1nc2cc(-c3cccnc3)cc(-c3ccc(C)cn3)c2s1
87 | 226 | COc1cc(C(=O)c2nc(C(=O)O)c3ccccn23)ccc1N
88 | 120 | CN1CCC(OC2c3ccccc3CCn3c2nc(-c2ccccc2)c3CO)CC1 (centres undefined)
89 | 162 to 164 | NC(=O)c1ccc(OCCCC(=O)O)cc1
90 | 103 to 125 | COCCc1nc2c(N)nc3ccccc3c2n1CC(C)(C)CNC(=O)c1ccccc1
91 | 127 to 128 | COCCN(CCOC)c1nc2cc(-c3ccc(OC)cc3)nnc2c2ccccc12
92 | 146 to 148 | Cc1ccc(C2CC(n3cncn3)c3ccccc3N2)cc1 (centres undefined)
93 | 147 to 148 | O=C(O)c1ccc(CCCC2SCC(=O)N2CCC2(O)CCCCC2)cc1 (centres undefined)
94 | 111 to 113 | C[C@@H]1Cc2ccsc2[C@H](C)N1CCNC(=O)c1cccs1 (relative stereo)
95 | 110 to 142 | CC(=O)OCCN1CCN(C)c2cc(Nc3ncc(Cl)c(N[C@@H]4CCCC[C@H]4NS(C)(=O)=O)n3)ccc2C1
96 | 290 to 292 | CC(=O)Nc1nc2ccc(S(=O)(=O)n3c(CCC(=O)O)cc4cc(C(F)(F)F)ccc43)cc2s1

Row | SMILES | melting point [°C]
97 | CCOC(=O)CNC(=O)CN1CCCC1=O | 63 to 64
98 | CCCN1CCC23c4cccc(OC)c4OC2C2CCC3(C1)C(COC)C2 (centres undefined) | 130 to 131
99 | COc1cc2c(cc1OC)N(C)C(=O)CN=C2c1cccnc1 | 177 to 179
